Results taken from PubChem BioAssay (NCI).
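Dose response: 5 concentrations. Exposure: 48 h. Format: 96-well plates. Endpoint: linear interpolation; highest concentration if not reached. TGI is the concentration that stops growth completely.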

Key:
Experiment in all cases: NCI tumour cell line growth inhibition, 48 h
[1] = test system: CCRF-CEM leukemia
[2] = test system: HCT-15 colon
[3] = test system: HOP-62 NSCLC
[4] = test system: HOP-92 NSCLC
[5] = test system: K-562 leukemia
[6] = test system: MDA-MB-435
[7] = test system: MDA-N
[8] = test system: MOLT-4 leukemia
[9] = test system: NCI-H460 lung
[10] = test system: SF-539 CNS
[11] = test system: T-47D breast

| SMILES | TGI [1] | TGI [2] | TGI [3] | TGI [4] | TGI [5] | TGI [6] | TGI [7] | TGI [8] | TGI [9] | TGI [10] | TGI [11] |
| --- | --- | --- | --- | --- | --- | --- | --- | --- | --- | --- | --- |
| CCOC(=O)C(NC(=O)c1cccc(Cl)c1)(Nc1cccc(C)c1)C(F)(F)F (stereo unspecified) | > 100 µM | 31.2 µM | 36.2 µM | 29 µM | > 100 µM | 43.8 µM | 38.8 µM | 67.8 µM | 47.6 µM | 32.7 µM | 54.5 µM |
| O=C(c1ccc([N+](=O)[O-])cc1)N1CCCC1 | > 100 µM | > 100 µM | > 100 µM | > 100 µM | > 100 µM | > 100 µM | > 100 µM | > 100 µM | > 100 µM | > 100 µM | > 100 µM |
| CCOC(=O)N1CCN(c2c(N)nc(C)[nH]c2=O)CC1 | > 100 µM | > 100 µM | > 100 µM | > 100 µM | > 100 µM | > 100 µM | > 100 µM | > 100 µM | > 100 µM | > 100 µM | > 100 µM |
| Cc1c(C(=O)NNc2ccccc2)n2c(=S)[nH]nc2c2ccccc12 | > 100 µM | > 100 µM | > 100 µM | > 100 µM | > 100 µM | > 100 µM | > 100 µM | > 100 µM | > 100 µM | > 100 µM | > 100 µM |
| CN1C2=Nc3n(c4ccccc4[n+]3C)CN2c2ccccc21 | > 100 µM | > 100 µM | > 100 µM | 81.1 µM | > 100 µM | 91 µM | 50.5 µM | > 100 µM | > 100 µM | > 100 µM | 55.1 µM |
| C=C1C[C@@H]2O[C@H]3[C@H]4[C@@H](C[C@@H](C)[C@@H](OC(C)=O)[C@H]42)[C@@H](C)CO[C@@]3(C)[C@H](OC(=O)CCCCCCC)CC1=O | 23.8 µM | 28.9 µM | 29.8 µM |  |  | 30.8 µM | 31 µM | 40.8 µM | 24.2 µM | 38 µM | 31.5 µM |
| Cc1nc2c(=O)n(-c3ccccc3)c(=O)n(-c3ccccc3)c2o1 | > 100 µM | > 100 µM | > 100 µM | > 100 µM | > 100 µM | > 100 µM | > 100 µM | > 100 µM | > 100 µM | > 100 µM | > 100 µM |
| NCCCCNCCCN1CCOC1=O | > 100 µM | > 100 µM | > 100 µM |  | > 100 µM | > 100 µM | > 100 µM | > 100 µM | > 100 µM | > 100 µM | > 100 µM |
| Cc1cc(-c2cc(C(C)(C)C)c(O)c(C(C)(C)C)c2)c(C)cc1-c1cc(C(C)(C)C)c(O)c(C(C)(C)C)c1 | > 100 µM | > 100 µM | > 100 µM | 38.2 µM | > 100 µM | 32.7 µM | > 100 µM | > 100 µM |  | > 100 µM | > 100 µM |
| CC(C)=CCc1c(O)cc2oc(-c3ccc(O)cc3O)cc(=O)c2c1O | 28.2 µM | > 63.2 µM | > 92.8 µM | > 88.6 µM | > 59.2 µM | > 75.5 µM | 72.3 µM |  | > 100 µM | 58.7 µM | 49.8 µM |
| CN(C)/N=N/c1nc2c(c(=O)n(C)c(=O)n2C)n1CC1CO1 (stereo unspecified) | > 100 µM | 29.1 µM | 34.4 µM |  | 60.2 µM | 35.6 µM | 46.7 µM | > 100 µM | 21.7 µM | 22.5 µM | 80 µM |
| CCOC(=O)c1c(-c2ccccc2)c(OC)cn1C | > 10 µM | > 10 µM | > 10 µM |  | > 10 µM | > 10 µM | > 10 µM | > 10 µM | > 10 µM | > 10 µM | > 10 µM |
| Nc1c(N2CCOCC2)c(=O)nc2[nH]/c(=C\c3ccccc3O)c(=O)n12 | > 100 µM | > 100 µM |  | > 100 µM | > 100 µM | > 100 µM | > 100 µM | > 100 µM | > 100 µM | > 100 µM | > 100 µM |
| CC(=O)/C(=N\Nc1ccc(Cl)cc1)C(C)=Nc1ccc(C)cc1 | 37.7 µM | > 100 µM |  | 37.4 µM | > 100 µM | > 100 µM | > 100 µM | > 100 µM |  |  | > 100 µM |
| N#Cc1c(-c2ccc([N+](=O)[O-])cc2)c(C#N)c(=O)n(NS(=O)(=O)c2ccccc2)c1O | > 100 µM | > 100 µM | > 100 µM | > 100 µM | > 100 µM | > 100 µM | > 100 µM | > 100 µM | > 100 µM | > 100 µM |  |
| Oc1ccccc1/C=N/N1C(=S)N(C23CC4CC(CC(C4)C2)C3)C(=Nc2ccccc2)C1=Nc1ccccc1 |  | > 100 µM | > 100 µM | > 100 µM | > 100 µM | > 100 µM | > 100 µM | > 100 µM | > 100 µM | > 100 µM | > 100 µM |
| C=C1[C@@H]2CCC3[C@]4(C)C(CC[C@@]5(C)C(=O)O[C@H](O)[C@@H]45)[C@H](O)[C@]3(C2)[C@H]1OC1OC(CO)C(O)C(O)C1O (stereo partly specified) |  | > 50 µM | > 50 µM |  | > 50 µM |  | > 50 µM | > 50 µM | > 50 µM | > 50 µM | > 50 µM |
| Cc1cc(-c2ccccc2)nc2oc(=O)n(C)c12 | > 100 µM | > 100 µM | > 100 µM | > 100 µM | > 100 µM | > 100 µM | > 100 µM | > 100 µM | > 100 µM |  | > 100 µM |
| CO[P@@]1(=O)O[C@@H](c2ccccc2)[C@H](O)[C@]1(O)c1ccccc1 | > 100 µM | > 100 µM |  | > 100 µM | > 100 µM | > 100 µM | > 100 µM | > 100 µM | > 100 µM | > 100 µM | > 100 µM |
| NC(=O)C1CCN(Cc2c(Cl)c(Cl)c(CN3CCC(C(N)=O)CC3)c(Cl)c2Cl)CC1 | > 100 µM | > 100 µM | 39.7 µM | > 100 µM | > 100 µM | > 100 µM |  | > 100 µM | > 100 µM | 70.7 µM | > 100 µM |
| CCCCNC(=O)Cn1c2ccc(Br)cc2c2nc3ccccc3nc21 | > 100 µM |  | > 100 µM | > 100 µM | > 100 µM | > 100 µM | > 100 µM | > 100 µM |  |  | > 100 µM |
| CC(=N/NC(=S)N(C)C)/C(=N\NC(=S)N(C)C)c1ccccc1 |  | 4.36 µM | 5.33 µM | 3.53 µM | > 100 µM | 3.56 µM | 8.58 µM | > 100 µM | 3.91 µM | 25.8 µM | 3.54 µM |
| O=C1CSC(c2c[nH]c3ccccc23)N1c1ccc(Cl)cc1Cl (stereo unspecified) | > 100 µM | > 100 µM | > 100 µM | > 100 µM | > 100 µM |  | > 100 µM | > 100 µM | > 100 µM | > 100 µM | > 100 µM |
| CC[C@H](NC(=O)OC(C)(C)C)C(=O)NCP(=O)(OCc1ccc([N+](=O)[O-])cc1)OCc1ccc([N+](=O)[O-])cc1 | > 100 µM | > 100 µM | > 100 µM | > 100 µM |  | > 100 µM | 86.1 µM | > 100 µM | > 100 µM | 90 µM | > 100 µM |
| CCN(CC)C(=S)N/N=C(/c1ccccc1)c1ccccn1 | 1.09 µM | > 36.9 µM | 13.6 µM | > 100 µM | > 100 µM | > 47.3 µM | 26.1 µM | > 100 µM | 0.385 µM | 4.24 µM |  |
| O=C([C@H](O)[C@@H](O)c1cccc(Cl)c1)C12CC3CC(CC(C3)C1)C2 | > 100 µM | 6.62 µM | 7.9 µM |  | > 100 µM | 8.46 µM | 5.92 µM | > 100 µM |  | 3.61 µM | 4.21 µM |
| CC/C=N\N1C(N)=C(C#N)C(C#N)(C#N)C1CC (stereo unspecified) | > 100 µM | > 100 µM | > 100 µM |  | > 100 µM | > 100 µM | > 100 µM | > 100 µM |  | 80.8 µM | > 100 µM |
| CCC1(CC)C(=O)N(C(=O)c2cc(OC)c(OC)c(OC)c2)N(C(=O)c2cc(OC)c(OC)c(OC)c2)C1=O | > 50 µM | > 50 µM | > 50 µM |  | > 50 µM | > 50 µM | > 50 µM |  | > 50 µM | > 50 µM | > 50 µM |
| CCOC(=O)c1c(SCc2cc(=O)[nH]c(=O)[nH]2)n(-c2ccccc2)c(=S)n(-c2ccccc2)c1=O | > 100 µM | > 100 µM | > 100 µM |  | > 100 µM | > 100 µM | > 100 µM | > 100 µM | > 100 µM | > 100 µM | > 100 µM |
| CSc1nc(=O)c2nc(-c3cccs3)c(-c3cccs3)nc2n1C | > 100 µM | > 100 µM | 47.2 µM | 83.5 µM | > 100 µM | > 100 µM | > 100 µM | > 100 µM | > 100 µM |  | 80.4 µM |
